This is an account of results in patent US5212286A, “Atrial Natriuretic/vasodilator peptide compounds” (Scios Nova Inc., priority 1986, dated 1993).

Positions of bridges follow the written chain, without caps; N, C: chain ends. Non-standard residues stand in square brackets, D forms with d. Residues, ends and D or L forms follow the SMILES beside them.

The test system of test [1] is ANVP receptor sites on cultured bovine vascular smooth muscle cells. The test is described as follows: Displacement of specific [125I]rANVP(126-150) binding on cultured smooth muscle cells. The conditions noted are these: Series B smooth muscle cells; concentration of half-maximal displacement. An excerpt: Specific and saturable binding is a necessary component of a hormone/receptor interaction.
Various concentrations of the peptides described were examined for […]

Test [2] relates to intact rats. The test is described as follows: Natriuretic and diuretic effects in intact rats (bolus injection). Format: in vivo, rat. As to the method:
Synthetic ANVP compounds […] hANVP(127-151) were also found to be natriuretic in the intact rat. These compounds were administered as a bolus injection to Inactin anesthetized rats (100 mg/kg, average weight 399 g) which were maintained on a constant infusion of normal saline at 2.2 ml/hr. […] Data are expressed as mean±SE.

The test system of test [3] is precontracted rabbit or rat aortic preparations. Description: Vasorelaxant potency on precontracted aortic rings. The conditions noted are these: for vasorelaxant potency in words: precontracted vascular preparations; for IC50: thoracic aortic segments precontracted with histamine or norepinephrine, read-out: IC50 (concentration producing half-maximal relaxation of the precontracted tissue). As to the method: Synthetic ANVP compounds were compared to partially purified (gel filtration step) and purified (HPLC) native ANVP compounds (See FIGS. 3A-D) for their ability to relax histamine-contracted aortic rings. Rings were suspended in 10 ml aerated Kreb's buffer under 1.5 gm passive tension. Rings were precontracted with 5 X 10^-6 M histamine, washed and allowed to return to baseline tension, as described ([…]., supra). Increasing amounts of purified or synthetic ANVP compounds were then added in cumulative fashion. […] The relaxation effects of various ANVP compounds on precontracted rabbit or rat aortic preparations are shown in Table III. | Thoracic aortic segments were precontracted with histamine or | norepinephrine as previously described. Various doses of ANVP compounds | were then added and relaxation of the precontracted state was monitored. | Data are expressed as the concentration of each peptide required to | produce a halfmaximal relaxation of the precontracted tissue (IC50).

In test [1], `CC[C@H](C)[C@@H]1NC(=O)[C@H](CCCNC(=N)N)NC(=O)[C@H](CC(N)=O)NC(=O)[C@H]([C@@H](C)CC)NC(=O)[C@H](CCCNC(=N)N)NC(=O)CNC(=O)CNC(=O)[C@H](Cc2ccccc2)NC(=O)[C@@H](NC(=O)[C@H](CO)NC(=O)[C@H](CO)NC(=O)[C@@H](N)CCCNC(=N)N)CSSC[C@@H](C(=O)N[C@@H](CC(N)=O)C(=O)N[C@@H](CO)C(=O)N[C@@H](Cc2ccccc2)C(=O)N[C@@H](CCCNC(=N)N)C(=O)N[C@@H](Cc2ccc(O)cc2)C(=O)O)NC(=O)CNC(=O)[C@H](CC(C)C)NC(=O)CNC(=O)[C@H](CO)NC(=O)[C@H](CCC(N)=O)NC(=O)[C@H](C)NC(=O)CNC1=O` [[Asn^135]rANVP(126-150)] (H-RSSCFGGRINRIGAQSGLGCNSFRY-OH; disulfide 4-20) displayed a Ki of 33.9 nM.

Turning to `CC[C@H](C)[C@@H]1NC(=O)[C@H](CCCNC(=N)N)NC(=O)[C@H](CC(=O)O)NC(=O)[C@H]([C@@H](C)CC)NC(=O)[C@H](CCCNC(=N)N)NC(=O)CNC(=O)[C@@H](C)NC(=O)[C@H](Cc2ccccc2)NC(=O)[C@@H](NC(=O)[C@H](CO)NC(=O)[C@H](CO)NC(=O)[C@@H](N)CCCNC(=N)N)CSSC[C@@H](C(=O)N[C@@H](CC(N)=O)C(=O)N[C@@H](CO)C(=O)N[C@@H](Cc2ccccc2)C(=O)N[C@@H](CCCNC(=N)N)C(=O)N[C@@H](Cc2ccc(O)cc2)C(=O)O)NC(=O)CNC(=O)[C@H](CC(C)C)NC(=O)[C@@H](C)NC(=O)[C@H](CO)NC(=O)[C@H](CCC(N)=O)NC(=O)[C@H](C)NC(=O)CNC1=O` [[D-Ala^131][D-Ala^142]rANVP(126-150), H-Arg-Ser-Ser-Cys-Phe-[D-Ala]Gly-Arg-Ile-Asp-Arg-Ile-Gly-Ala-Gln-Ser-[D-Ala]-Leu-Gly-Cys-Asn-Ser-Phe-Arg-Tyr-OH] (H-RSSCF[dA]GRIDRIGAQS[dA]LGCNSFRY-OH; disulfide 4-20), in test [2] (dose 3670 pmol/kg), the “Peak Na+ Excr.” value worked out at 140 ± 8 µmol/min and the “Peak Urine Vol.” value is 30 ± 7 µL/min.

As to `CC[C@H](C)[C@@H]1NC(=O)[C@H](CCCNC(=N)N)NC(=O)[C@H](CC(=O)O)NC(=O)[C@H]([C@@H](C)CC)NC(=O)[C@H](CCCNC(=N)N)NC(=O)CNC(=O)[C@@H](C)NC(=O)[C@H](Cc2ccccc2)NC(=O)[C@@H](NC(=O)[C@H](CO)NC(=O)[C@H](CO)NC(=O)[C@@H](N)CCCNC(=N)N)CSSC[C@@H](C(=O)N[C@@H](CC(N)=O)C(=O)N[C@@H](CO)C(=O)N[C@@H](Cc2ccccc2)C(=O)N[C@@H](CCCNC(=N)N)C(=O)N[C@@H](Cc2ccc(O)cc2)C(=O)O)NC(=O)CNC(=O)[C@H](CC(C)C)NC(=O)CNC(=O)[C@H](CO)NC(=O)[C@H](CCC(N)=O)NC(=O)[C@H](C)NC(=O)CNC1=O` [[D-Ala^131]rANVP(126-150), H-Arg-Ser-Ser-Cys-Phe-[D-Ala]-Gly-Arg-Ile-Asp-Arg-Ile-Gly-Ala-Gln-Ser-Gly-Leu-Gly-Cys-Asn-Ser-Phe-Arg-Tyr-OH], in test [3], the “vasorelaxant potency in words” value is on record as “most potent” and the IC50 was found to be 0.9 nM.

On to `CC[C@H](C)[C@@H]1NC(=O)[C@H](CCCNC(=N)N)NC(=O)[C@H](CC(=O)O)NC(=O)[C@H]([C@@H](C)CC)NC(=O)[C@H](CCCNC(=N)N)NC(=O)[C@@H](C)NC(=O)CNC(=O)[C@H](Cc2ccccc2)NC(=O)[C@@H](NC(=O)[C@H](CO)NC(=O)[C@H](CO)NC(=O)[C@@H](N)CCCNC(=N)N)CSSC[C@@H](C(=O)N[C@@H](CC(N)=O)C(=O)N[C@@H](CO)C(=O)N[C@@H](Cc2ccccc2)C(=O)N[C@@H](CCCNC(=N)N)C(=O)N[C@@H](Cc2ccc(O)cc2)C(=O)O)NC(=O)CNC(=O)[C@H](CC(C)C)NC(=O)CNC(=O)[C@H](CO)NC(=O)[C@H](CCC(N)=O)NC(=O)[C@H](C)NC(=O)CNC1=O` [[D-Ala^132]rANVP(126-150), H-Arg-Ser-Ser-Cys-Phe-Gly-[D-Ala]-Arg-Ile-Asp-Arg-Ile-Gly-Ala-Gln-Ser-Gly-Leu-Gly-Cys-Asn-Ser-Phe-Arg-Tyr-OH], for which, in test [2] (dose 3670 pmol/kg), the “Peak Na+ Excr.” value was found to be 20 ± 5 µmol/min and the “Peak Urine Vol.” value turned out to be 89 µL/min.

For `CC[C@H](C)[C@@H]1NC(=O)[C@H](CCCNC(=N)N)NC(=O)[C@H](CC(=O)O)NC(=O)[C@@H](C(C)C)NC(=O)[C@H](CCCNC(=N)N)NC(=O)CNC(=O)CNC(=O)[C@H](Cc2ccccc2)NC(=O)[C@@H](NC(=O)[C@H](CO)NC(=O)[C@H](CO)NC(=O)[C@@H](N)CCCNC(=N)N)CSSC[C@@H](C(=O)N[C@@H](CC(N)=O)C(=O)N[C@@H](CO)C(=O)N[C@@H](Cc2ccccc2)C(=O)N[C@@H](CCCNC(=N)N)C(=O)N[C@@H](Cc2ccc(O)cc2)C(=O)O)NC(=O)CNC(=O)[C@H](CC(C)C)NC(=O)CNC(=O)[C@H](CO)NC(=O)[C@H](CCC(N)=O)NC(=O)[C@H](C)NC(=O)CNC1=O` [[D-Val^134]rANVP(126-150), H-Arg-Ser-Ser-Cys-Phe-Gly-Arg-[D-Val]-Asp-Arg-Ile-Gly-Ala-Gln-Ser-Gly-Leu-Gly-Cys-Asn-Ser-Phe-Arg-Tyr-OH], the IC50 in test [3] was 13 nM.

Regarding `CC[C@H](C)[C@@H]1NC(=O)[C@H](CCCNC(=N)N)NC(=O)CNC(=O)CNC(=O)[C@H](Cc2ccccc2)NC(=O)[C@@H](NC(=O)[C@H](CO)NC(=O)[C@H](CO)NC(=O)[C@@H](N)CCCNC(=N)N)CSSC[C@@H](C(=O)N[C@@H](CC(N)=O)C(=O)N[C@@H](CO)C(=O)N[C@@H](Cc2ccccc2)C(=O)N[C@@H](CCCNC(=N)N)C(=O)N[C@@H](Cc2ccc(O)cc2)C(=O)O)NC(=O)CNC(=O)[C@H](CC(C)C)NC(=O)CNC(=O)[C@H](CO)NC(=O)[C@H](CCC(N)=O)NC(=O)[C@H](C)NC(=O)CNC(=O)[C@@H](C(C)C)NC(=O)[C@H](CCCNC(=N)N)NC(=O)[C@H](CC(=O)O)NC1=O` [[D-Val^137]rANVP(126-150), H-Arg-Ser-Ser-Cys-Phe-Gly-Gly-Arg-Ile-Asp-Arg-[D-Val]-Gly-Ala-Gln-Ser-Gly-Leu-Gly-Cys-Asn-Ser-Phe-Arg-Tyr-OH], in test [3], the IC50 amounted to 40 nM. In addition, in test [2] (Table VII doses), the “diuresis and natriuresis in intact rats, in words” value is reported as “exceptions”. Also, in test [2] (dose 3670 pmol/kg), the “Peak Na+ Excr.” value came to 0.54 ± 0.3 µmol/min and the “Peak Urine Vol.” value was 9.5 ± 5 µL/min.

Turning to `CC[C@H](C)[C@@H]1NC(=O)[C@H](CCCNC(=N)N)NC(=O)[C@H](CC(=O)O)NC(=O)[C@H]([C@@H](C)CC)NC(=O)[C@H](CCCNC(=N)N)NC(=O)[C@@H]2CCCN2C(=O)CNC(=O)[C@H](Cc2ccccc2)NC(=O)[C@@H](NC(=O)[C@H](CO)NC(=O)[C@H](CO)NC(=O)[C@@H](N)CCCNC(=N)N)CSSC[C@@H](C(=O)N[C@@H](CC(N)=O)C(=O)N[C@@H](CO)C(=O)N[C@@H](Cc2ccccc2)C(=O)N[C@@H](CCCNC(=N)N)C(=O)N[C@@H](Cc2ccc(O)cc2)C(=O)O)NC(=O)CNC(=O)[C@H](CC(C)C)NC(=O)CNC(=O)[C@H](CO)NC(=O)[C@H](CCC(N)=O)NC(=O)[C@H](C)NC(=O)CNC1=O` [[Pro^132]rANVP(126-150), H-Arg-Ser-Ser-Cys-Phe-Gly-Pro-Arg-Ile-Asp-Arg-Ile-Gly-Ala-GLn-Ser-Gly-Leu-Gly-Cys-Asn-Ser-Phe-Arg-Tyr-OH], the IC50 in test [3] stood at 3.25 nM. In test [2] (dose 3670 pmol/kg), the “Peak Na+ Excr.” value turned out to be 56 ± 20 µmol/min and the “Peak Urine Vol.” value amounted to 10.5 ± 2 µL/min.

For `CC[C@H](C)[C@@H]1NC(=O)[C@H](CCCNC(=N)N)NC(=O)[C@H](CC(=O)O)NC(=O)[C@H](CCSC)NC(=O)[C@H](CCCNC(=N)N)NC(=O)CNC(=O)CNC(=O)[C@H](Cc2ccccc2)NC(=O)[C@@H](NC(=O)[C@H](CO)NC(=O)[C@H](CO)NC(=O)[C@@H](N)CCCNC(=N)N)CSSC[C@@H](C(=O)N[C@@H](CC(N)=O)C(=O)N[C@@H](CO)C(=O)N[C@@H](Cc2ccccc2)C(=O)O)NC(=O)CNC(=O)[C@H](CC(C)C)NC(=O)CNC(=O)[C@H](CO)NC(=O)[C@H](CCC(N)=O)NC(=O)[C@H](C)NC(=O)CNC1=O` [hANVP(127-149)] (H-RSSCFGGRMDRIGAQSGLGCNSF-OH; disulfide 4-20), in test [1], affinity was put at a Ki of 2.45 nM.

For `CC[C@H](C)[C@@H]1NC(=O)[C@H](CCCNC(=N)N)NC(=O)[C@H](CC(=O)O)NC(=O)[C@H]([C@@H](C)CC)NC(=O)[C@H](CCCNC(=N)N)NC(=O)CNC(=O)CNC(=O)[C@H](Cc2ccccc2)NC(=O)[C@@H](NC(=O)[C@H](CO)NC(=O)[C@H](CO)NC(=O)[C@@H](N)CCCNC(=N)N)CSSC[C@@H](C(=O)N[C@@H](CC(N)=O)C(=O)N[C@@H](CO)C(=O)N[C@@H](Cc2ccccc2)C(=O)N[C@@H](CCCNC(=N)N)C(=O)N[C@@H](Cc2ccc(O)cc2)C(N)=O)NC(=O)CNC(=O)[C@H](CC(C)C)NC(=O)CNC(=O)[C@H](CO)NC(=O)[C@H](CCC(N)=O)NC(=O)[C@H](C)NC(=O)CNC1=O` [rANVP(126-150)-NH2, H-Arg-Ser-Ser-Cys-Phe-Gly-Gly-Arg-Ile-Asp-Arg-Ile-Gly-Ala-Gln-Ser-Glyn-Leu- Gly-Cys-Asn-Ser-Phe-Arg-Tyr-NH2], in test [3], the “vasorelaxant potency in words” value is “most potent” and the IC50 is 0.8 nM. Besides, in test [2] (dose 367 pmol/kg), the “Peak Na+ Excr.” value came to 57 µmol/min and the “Peak Urine Vol.” value was 11.2 ± 1.6 µL/min.
